Test results as given in patent publication US10376520B2, “Methods for the treatment of cardiovascular disorders” (Galapagos NV, priority 2015, dated 2019).

Tests used:
Format in all cases: in vivo, human
[1] = system: RA patients; assay: ApoB level (Selectra autoanalyzer), Study 4; settings: for ApoB level, 4 weeks CFB: 4 weeks change from baseline
Protocol: (§1) Randomized double-blind, placebo-controlled add on study in subjects with active RA who have an inadequate response to MTX monotherapy, in combination with methotrexate, administered for 4 weeks in the treatment of subjects with active rheumatoid arthritis who have an inadequate response to methotrexate alone.
(§2) Compound 1 (dosed as a [Compound 1:HCl:3H2O]) capsules administered orally in 30 mg, 75 mg, 150 mg, or 300 mg doses per day for 4 weeks.
ApoAI, and ApoB were measured on the Selectra autoanalyzer (Sopachem BV, 44-RI Straat 33, 4051 AP Ochten, The Netherlands). All assays were commercially available from DiaSys Diagnostic Systems GmbH, Alte Strasse 9, 65558 Holzheim, Germany.

[2] = system: RA patients; assay: Plasma PCSK9 concentration (ELISA), Study 4; settings: for PCSK9 level, 4 weeks CFB: 4 weeks change from baseline
Protocol: as §1, §2
Plasma PCSK9 concentration was determined using a commercial available ELISA kit from R&D systems (614 McKinley Place NE, Minneapolis, Minn. 55413, USA) according to manufacturer's instruction. Catalogue number DPC900, lot number used: 321050.

[3] = system: RA patients; assay: Paraoxonase assay (PON1), Study 4; settings: for PON1 level, 4 weeks CFB: 4 weeks change from baseline
Protocol: as §1, §2
Paraoxanases are involved, in particular PON1 have a role in preventing atherosclerosis.
The PON assay is performed according to published protocol by Mackness et al. (Mackness et al., 2003).

[4] = system: healthy volunteers, and patients suffering from inflammatory diseases; assay: Lipid profile after oral administration of Compound 1 in humans (summary over the studies)
Protocol: When Compound 1 was administered orally in humans, an unexpected change in the lipid profile was observed.
In contrast, whereas Compound 1 raised the low [total cholesterol] levels, an unexpected disproportionate rise in blood of [HDL] vs [LDL] was observed. In particular, [HDL] levels of 5-23% compared to initial levels were seen. Moreover, this rise in [HDL] was substantially higher than the corresponding increases in [LDL] levels. In particular between 1.1 and 4 fold higher increases in [HDL] vs. [LDL] were seen.
Typically, in a recent treatment study with Tofacitinib, a JAK inhibitor for 6 weeks at a dose of 10 mg bid in RA patient, the atherogenic index was unchanged before and after treatment at about 3.5 (Charles-Schoeman et al., 2015) thus leaving the patient at an increased cardiovascular risk before and after treatment.
Furthermore, this effect was sustained over at least 12 weeks, and at least 24 weeks and were observed over a dose range of 50-200 mg administered either twice daily (b.i.d) or once a day (q.d.).
Additionally, this effect was seen both in healthy volunteers, and patients suffering from inflammatory diseases (for example RA and Crohn's disease).

[5] = system: RA patients; assay: Total cholesterol determination, Study 4 (4 weeks study in RA patients with inadequate response to methotrexate); settings: for [Total cholesterol] levels: Study 4
Excerpt: Randomized, double-blind, placebo-controlled, multicenter, phase II study of Compound 1 (dosed as a [Compound 1:HCl:3H2O]) to compare four dose regimens versus placebo, in combination with methotrexate, administered for 4 weeks in the treatment of subjects with active rheumatoid arthritis who have an inadequate response to methotrexate alone.
as §1
90 subjects randomized to one of 4 dose regimens of Compound 1 (dosed as a [Compound 1:HCl:3H2O]) or placebo, on top of their stable dose of MTX. Thus, each of the 4 different doses of Compound 1 (dosed as a [Compound 1:HCl:3H2O]) and placebo groups has 18 subjects.
as §2
This method is based on the determination of Δ^4 cholestenone after enzymatic cleavage of the cholesterol ester by cholesterol esterase, conversion of cholesterol by cholesterol oxidase, and subsequent measurement by the Trinder reaction of the hydrogen peroxide formed (Allain et al., 1974).
Cholesterol esters are cleaved by the action of cholesterol esterase to yield free cholesterol and fatty acids. Cholesterol oxidase then catalyzes the oxidation of cholesterol to cholest-4-en-3-one and hydrogen peroxide. In the presence of peroxidase, the hydrogen peroxide formed effects the oxidative coupling of phenol and 4-aminophenazone to form a red quinone-imine dye. The color intensity of the dye formed is directly proportional to the cholesterol concentration. It is determined by measuring the increase in absorbance.
Human serum and plasma samples cholesterol determination was done on a Roche/Hitachi Cobas c 701/702 system which automatically calculate the analyte concentration of each sample.

## O=C(Nc1nc2cccc(-c3ccc(CN4CCS(=O)(=O)CC4)cc3)n2n1)C1CC1 [Compound 1, cyclopropanecarboxylic acid {5-[4-(1,1-dioxo-thiomorpholin-4-ylmethyl)-phenyl]-[1,2,4]triazolo[1,5-a]pyridin-2yl}-amide]
[1]; 30 mg q.d.
  ApoB level, 4 weeks CFB: 19.5%
  ApoB level, Baseline: 98.8 mg/dL
  ApoB level, week 4: 111 mg/dL
[1]; 75 mg q.d.
  ApoB level, 4 weeks CFB: −1.1%
  ApoB level, Baseline: 98.5 mg/dL
  ApoB level, week 4: 94.7 mg/dL
[1]; 150 mg q.d.
  ApoB level, 4 weeks CFB: −1.8%
  ApoB level, Baseline: 93.8 mg/dL
  ApoB level, week 4: 90.7 mg/dL
[1]; 300 mg q.d.
  ApoB level, 4 weeks CFB: 6.8%
  ApoB level, Baseline: 89.4 mg/dL
  ApoB level, week 4: 95.6 mg/dL
[2]; 30 mg q.d.
  PCSK9 level, 4 weeks CFB: 6.8%
  PCSK9 level, Baseline: 282.1 ng/mL
  PCSK9 level, week 4: 296.9 ng/mL
[2]; 75 mg q.d.
  PCSK9 level, 4 weeks CFB: 11.4%
  PCSK9 level, Baseline: 277.0 ng/mL
  PCSK9 level, week 4: 292.4 ng/mL
[2]; 150 mg q.d.
  PCSK9 level, 4 weeks CFB: 11.6%
  PCSK9 level, Baseline: 264.4 ng/mL
  PCSK9 level, week 4: 294.6 ng/mL
[2]; 300 mg q.d.
  PCSK9 level, 4 weeks CFB: 10.4%
  PCSK9 level, Baseline: 261.7 ng/mL
  PCSK9 level, week 4: 291.2 ng/mL
[3]; 30 mg q.d.
  PON1 level, 4 weeks CFB: 4.2%
[3]; 75 mg q.d.
  PON1 level, 4 weeks CFB: 11.2%
  PON1 level, Baseline: 69.3 ng/mL
  PON1 level, week 4: 73.7 ng/mL
[3]; 150 mg q.d.
  PON1 level, 4 weeks CFB: 43.4%
  PON1 level, Baseline: 52.5 ng/mL
  PON1 level, week 4: 70.6 ng/mL
[3]; 300 mg q.d.
  PON1 level, 4 weeks CFB: 31.0%
  PON1 level, week 4: 77.5 ng/mL
[4]; administered orally in humans
  rise in [HDL] levels compared to initial levels: 5-23%
[4]; doses ranging from 50 mg to 200 mg (once or twice daily) for a period of at least 4 weeks
  atherogenic index: drop of the atherogenic index
[5]; 30 mg qd
  [Total cholesterol] % Mean % variation vs baseline after 4 weeks: 6%
[5]; 75 mg qd
  [Total cholesterol] % Mean % variation vs baseline after 4 weeks: 5%
[5]; 150 mg qd
  [Total cholesterol] % Mean % variation vs baseline after 4 weeks: 3%
[5]; 300 mg qd
  [Total cholesterol] % Mean % variation vs baseline after 4 weeks: 17%
[5]; 30 mg q.d., baseline
  [Total cholesterol] levels: 5.19 mmol/L
[5]; 30 mg q.d., week 1
  [Total cholesterol] levels: 5.31 mmol/L
[5]; 30 mg q.d., week 2
  [Total cholesterol] levels: 5.25 mmol/L
[5]; 30 mg q.d., week 3
  [Total cholesterol] levels: 5.32 mmol/L
[5]; 30 mg q.d., week 4
  [Total cholesterol] levels: 5.50 mmol/L
[5]; 75 mg q.d., baseline
  [Total cholesterol] levels: 4.99 mmol/L
[5]; 75 mg q.d., week 1
  [Total cholesterol] levels: 5.04 mmol/L
[5]; 75 mg q.d., week 2
  [Total cholesterol] levels: 5.07 mmol/L
[5]; 75 mg q.d., week 3
  [Total cholesterol] levels: 5.08 mmol/L
[5]; 75 mg q.d., week 4
  [Total cholesterol] levels: 5.18 mmol/L
[5]; 150 mg q.d., baseline
  [Total cholesterol] levels: 4.77 mmol/L
[5]; 150 mg q.d., week 1
  [Total cholesterol] levels: 4.94 mmol/L
[5]; 150 mg q.d., week 2
  [Total cholesterol] levels: 4.85 mmol/L
[5]; 150 mg q.d., week 3
  [Total cholesterol] levels: 4.89 mmol/L
[5]; 150 mg q.d., week 4
  [Total cholesterol] levels: 4.96 mmol/L
[5]; 300 mg q.d., baseline
  [Total cholesterol] levels: 4.56 mmol/L
[5]; 300 mg q.d., week 1
  [Total cholesterol] levels: 5.13 mmol/L
[5]; 300 mg q.d., week 2
  [Total cholesterol] levels: 5.21 mmol/L
[5]; 300 mg q.d., week 3
  [Total cholesterol] levels: 5.23 mmol/L
[5]; 300 mg q.d., week 4
  [Total cholesterol] levels: 5.33 mmol/L
